Tests used:
[1] = system: (CTA)12/(TAG)12 36-mer DNA duplex; experiment: In vitro DNA methylation assay of DIM2 (WT or mutant); type: biochemical; parameters: DNA methylation activity: unit not given here; details: 30 min
HP1 = experiment: Size-exclusion chromatography of DIM2-HP1 complex; type: binding, Neurospora Crassa; details: 1.0 µM DIM2 and/or 2.5 µM HP1, Superdex 200 increase 10/300 GL, pH 7.5
Description: For size-exclusion chromatography analysis, 400 µL of the sample mixture containing 1.0 µM DIM2 and/or 2.5 µM HP1 was loaded onto Superdex 200 increase 10/300 GL column (GE Healthcare) and eluted at a flow rate of 0.5 mL/min, in the buffer containing 20 mM Tris-HCl (pH 7.5), 100 mM NaCl, 5% glycerol, and 5 mM DTT. The proteins in each fraction were then visualized by SDS-PAGE.

DIM2 = experiment: In vitro DNA methylation assay: effect of HP1 and H3 peptides on DIM2 activity; type: biochemical, Neurospora Crassa; details: 36-mer DNA duplex, 1.0 µM peptide and/or 2 µM HP1
Description: In vitro DNA methylation assay was performed in a 20-µL reaction mixture. For the substrate specificity assay, the following DNA duplexes were used as substrates: CG DNA (Upper strand: 5’-[…]-3’), hemimethylated CG DNA (Upper strand: 5’-TAAATTTXGATTAATAAT-3’, X = 5-methylcytosine; Lower strand: 5’-[…] -3’), CHG DNA (Upper strand: 5’-[…]-3’), and CHH DNA (Upper strand: 5’-[…]-3’). The reaction mixture contains 0.25 µM DIM2, 1.0 µM DNA duplex, 1.0 µM synthesized H3K9me3 peptide (residues 1-24 of H3 plus a C-terminal tryptophan), 0.5 µM HP1, and 0.56 µM S-adenosyl-L-[methyl-^3H] methionine with a specific activity of 18 Ci/mmol (PerkinElmer) in buffer containing 50 mM Tris-HCl (pH 8.0), 100 mM NaCl, 0.05% β-mercaptoethanol, 5% glycerol, and 200 µg/mL BSA. For the rest of the DNA methylation assay, each reaction mixture contains 1.0 µM DIM2, […] methionine with a specific activity of 18 Ci/mmol (PerkinElmer) in buffer containing 50 mM Tris-HCl (pH 8.0), 100 mM NaCl, 0.05% β-mercaptoethanol, 5% glycerol, and 200 µg/mL BSA. In addition, 1.0 µM synthesized H3K9me3 or H3K9me0 peptide (residues 1-24 of H3 plus a C-terminal tryptophan) and/or 2 µM HP1 protein was included to evaluate the effect of H3 and HP1 regulation. The reaction mixture was incubated at 30 °C for 30 min, unless indicated otherwise, before being quenched by the addition of 5 µL of 10 mM cold SAM. After the reaction, 8 μL of the mixtures was loaded onto Hybond N nylon membrane (GE Healthcare), which was left to dry out at room temperature. The membrane was subsequently washed with 0.2 M ammonium bicarbonate (pH 8.2) two times (20 min per time), deionized water (20 min) once, and 95% ethanol (5 min) once. After air dried, the membrane carrying each sample was transferred into a vial containing 3 mL scintillation buffer (Fisher). The tritium scintillation was measured and recorded by a Beckman LS6500 counter. Each the reaction was repeated three times.

DIM2, W261A = experiment: ITC binding of H3K9me3 peptide, DIM2 W261A; parameters: species or system Neurospora Crassa
Description: (§1) ITC measurements were performed using a MicroCal iTC200 instrument (GE Healthcare). To measure the bindings between proteins and H3K9me3 peptide, 0.04–0.05 mM DIM2, WT or mutant (W261A, W581A, or W261A/W581A), DIM2 RFTS domain, or HP1, WT or mutant (W98A), was titrated with 0.5 mM histone peptide at 7 °C. Prior to the titration, both peptide and protein samples were subjected to overnight dialysis against buffer containing 20 mM Tris-HCl (pH 7.5), 100 mM NaCl, and 1 mM β-mercaptoethanol. Buffer to buffer titration was performed to ensure no abnormality of baseline. Analyses of all data were performed with MicroCal Origin software, fitted with single-site binding mode.

DIM2, W581A = experiment: ITC binding of H3K9me3 peptide, DIM2 W581A; parameters: species or system Neurospora Crassa
Description: as §1

DIM2, W261A/W581A = experiment: ITC binding of H3K9me3 peptide, DIM2 W261A/W581A; parameters: species or system Neurospora Crassa; details: 7 °C, pH 7.5, NDB, no detectable binding
Description: as §1

## DIM2WT: Neurospora Crassa DIM2 (NCBI accession no. XP_959891.1) (residues 1-1242)
[1]; 1.0 µM DIM2, 30 °C, pH 8.0
  DNA methylation activity of DIM2 (in words): no detectable activity
[1]; Fig. 1b, 1.0 µM DIM2, 1.0 µM DNA duplex, 0.56 µM [methyl-3H]SAM, 1.0 µM H3 peptide and/or 2 µM HP1, pH 8.0, 30 °C, tritium scintillation, replicate 1
  DNA methylation activity: -0.021
[1]; Fig. 1b, 1.0 µM DIM2, 1.0 µM DNA duplex, 0.56 µM [methyl-3H]SAM, 1.0 µM H3 peptide and/or 2 µM HP1, pH 8.0, 30 °C, tritium scintillation, replicate 2
  DNA methylation activity: -0.01
[1]; Fig. 1b, 1.0 µM DIM2, 1.0 µM DNA duplex, 0.56 µM [methyl-3H]SAM, 1.0 µM H3 peptide and/or 2 µM HP1, pH 8.0, 30 °C, tritium scintillation, replicate 3
  DNA methylation activity: -0.04
[1]; Fig. 2g, in the presence of HP1 (2 µM) and H3_1-24K9me3 peptide (1.0 µM), 1.0 µM DIM2, 30 °C, pH 8.0, replicate 1
  DNA methylation activity: 20.908
[1]; Fig. 2g, in the presence of HP1 (2 µM) and H3_1-24K9me3 peptide (1.0 µM), 1.0 µM DIM2, 30 °C, pH 8.0, replicate 2
  DNA methylation activity: 20.644
[1]; Fig. 2g, in the presence of HP1 (2 µM) and H3_1-24K9me3 peptide (1.0 µM), 1.0 µM DIM2, 30 °C, pH 8.0, replicate 3
  DNA methylation activity: 18.328
[1]; Fig. 5f, DNA binding-associated mutants, 1.0 µM DIM2, 1.0 µM DNA duplex, 30 °C, pH 8.0, replicate 1
  DNA methylation activity: 14.337
[1]; Fig. 5f, DNA binding-associated mutants, 1.0 µM DIM2, 1.0 µM DNA duplex, 30 °C, pH 8.0, replicate 2
  DNA methylation activity: 13.213
[1]; Fig. 5f, DNA binding-associated mutants, 1.0 µM DIM2, 1.0 µM DNA duplex, 30 °C, pH 8.0, replicate 3
  DNA methylation activity: 13.147
[1]; Fig. 3h, in the presence of HP1 (2 µM) and H3_1-24K9me3 peptide (1.0 µM), 1.0 µM DIM2, 30 °C, pH 8.0, replicate 1
  DNA methylation activity: 22.922
[1]; Fig. 3h, in the presence of HP1 (2 µM) and H3_1-24K9me3 peptide (1.0 µM), 1.0 µM DIM2, 30 °C, pH 8.0, replicate 2
  DNA methylation activity: 23.125
[1]; Fig. 3h, in the presence of HP1 (2 µM) and H3_1-24K9me3 peptide (1.0 µM), 1.0 µM DIM2, 30 °C, pH 8.0, replicate 3
  DNA methylation activity: 22.99
[1]; Fig. 6d, H3_1-24K9me3 binding-associated mutants, 1.0 µM DIM2, 1.0 µM DNA duplex, 30 °C, pH 8.0, replicate 1
  DNA methylation activity: 19.42
[1]; Fig. 6d, H3_1-24K9me3 binding-associated mutants, 1.0 µM DIM2, 1.0 µM DNA duplex, 30 °C, pH 8.0, replicate 2
  DNA methylation activity: 16.017
[1]; Fig. 6d, H3_1-24K9me3 binding-associated mutants, 1.0 µM DIM2, 1.0 µM DNA duplex, 30 °C, pH 8.0, replicate 3
  DNA methylation activity: 17.874
HP1
  DIM2-HP1 complex formation (in words): co-migration

## H31-24K9me3: synthesized H3K9me3 peptide (residues 1-24 of H3 plus a C-terminal tryptophan)
DIM2
  effect on DNA methylation activity of DIM2 (in words): failed to activate DIM2 appreciably
DIM2, W261A; W261A vs WT
  enhanced binding affinity vs WT DIM2: ~ 2.3 fold
DIM2, W261A; in the absence of DNA
  BAH1-H3K9me3 binding stronger than RFTS-H3K9me3 binding by: ~ 24 fold
DIM2, W581A
  reduction of peptide-binding affinity vs WT DIM2: ~10 fold
DIM2, W261A/W581A
  Kd: NDB
DIM2, W261A/W581A; listed as H3K9me3 peptide
  Kd: complete abolishment

Reference: PMC11315935, “Multi-layered heterochromatin interaction as a switch for DIM2-mediated DNA methylation” (Nature Communications, 2024)
